Results published in patent US20220298158A1, “POLYMORPH OF VENETOCLAX AND METHOD FOR PREPARING THE POLYMORPH” (Johnson Matthey Public Limited Company, priority 2019, published 2022).

Assay: Stability study of venetoclax anhydrate under storage conditions (XRPD before and after storage)
Type: physicochemical
Description: (§1) FIG. 6 is representative XRPD overlay of venetoclax anhydrate before storage (bottom), venetoclax anhydrate after storage at 25° C./97% RH (relative humidity) for 7 days (middle), and venetoclax anhydrate after storage at 40° C./75% RH for 7 days (top).
X-Ray Powder Diffraction patterns were collected on a Bruker AXS C2 GADDS diffractometer using Cu Kα radiation (40 kV, 40 mA), automated XYZ stage, laser video microscope for auto-sample positioning and a HiStar 2-dimensional area detector. X-ray optics consists of a single Göbel multilayer mirror coupled with a pinhole collimator of 0.3 mm.
The beam divergence, i.e. the effective size of the X-ray beam on the sample, was approximately 4 mm. A θ-θ continuous scan mode was employed with a sample—detector distance of 20 cm which gives an effective 2θ range of 3.2° — 29.7° . Typically the sample would be exposed to the X-ray beam for 120 seconds. The software used for data collection was GADDS for XP/2000 4.1.43 and the data were analysed and presented using Diffrac Plus EVA v15.0.0.0.
as §1, with “Stability studies of venetoclax anhydrate under two storage conditions were also carried out. FIG.” for “FIG.”, “C/97%” for “C./97%”, “C/75%” for “C./75%”, “(top). […]” for “(top).”

With `CC1(C)CCC(CN2CCN(c3ccc(C(=O)NS(=O)(=O)c4ccc(NCC5CCOCC5)c([N+](=O)[O-])c4)c(Oc4cnc5[nH]ccc5c4)c3)CC2)=C(c2ccc(Cl)cc2)C1` [venetoclax anhydrate, 4-(4-{[2-(4-chlorophenyl)-4,4-dimethylcyclohex-1-en-1-yl]methyl}piperazin-1-yl)-N-({3-nitro-4-[(tetrahydro-2H-pyran-4-ylmethyl)amino]phenyl}sulfonyl)-2-(1H-pyrrolo[2,3-b]pyridine-5-yloxy)benzamide] the “time the anhydrate remains stable on storage (XRPD overlay)” value (storage at 25° C/97% RH (relative humidity) for 7 days) was “at least 7 days” and the “time the anhydrate remains stable on storage (XRPD overlay)” value (storage at 40° C/75% RH for 7 days) was “at least 7 days”.
